Assay results taken from the supplement of paper PMC10307832.

Compound: C1=CC2=NC=CN=C2C=C1/C=C/3\C(=O)NC(=O)S3 + O=C(c1cc(Cc2n[nH]c(=O)c3ccccc23)ccc1F)N1CCN(C(=O)C2CC2)CC1 [Olaparib] (partner 8 µM)
Assay: relative viability (nuclei count vs DMSO), 5 days (fraction); higher = more cells survive
Details: first compound 0.06325 µM
How it was run: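 Lung cancer cell lines were seeded in 1536-well plates and dosed by pin tool the next day, with either a single drug or a fixed anchor-drug dose combined with five library-drug doses (not always all listed) spaced in √10 steps. Five days later, one step fixed the cells and stained their nuclei (final 0.05% Triton X-100, 1% formaldehyde, 1 ug/ml Hoechst), and nuclei were counted on 4× images. Relative viability is the nuclei count in treated wells divided by the count in vehicle wells, and each value is the median of duplicate plates.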

Cell Line	relative viability
LCLC-103H	0.788
NCI-H520	0.321
NCI-H2126	0.946
EMC-BAC-2	0.498
NCI-H2085	0.73
Calu-6	0.621
NCI-H1666	0.713
NCI-H596	0.719
LK-2	0.798
NCI-H2087	0.646
NCI-H2342	0.403
SK-MES-1	0.793
H3255	0.509
COR-L23	0.383
COR-L 105	0.711
IA-LM	1.02
LOU-NH91	0.925
ChaGo-K-1	0.351
NCI-H2170	0.594
A549	0.133
SW 900	0.769
NCI-H1648	0.547
NCI-H2009	0.715
NCI-H661	0.733
SK-LU-1	0.42
NCI-H1299	0.961
CAL-12T	0.784
NCI-H2228	0.599
NCI-H2023	0.461

Same assay, conditions: first compound 0.2 µM

Cell Line	relative viability
NCI-H522	0.723
NCI-H727	0.637
NCI-H1650	0.845
EBC-1	0.754
NCI-H1703	0.434
NCI-H1993	1.05
SW 1573	0.434
NCI-H838	0.795
LCLC-103H	0.727
NCI-H520	0.352
NCI-H2126	0.841
EMC-BAC-2	0.572
NCI-H2085	0.798
Calu-6	0.597
HCC-366	0.374
NCI-H1666	0.709
NCI-H596	0.677
LK-2	0.758
NCI-H2087	0.57

Cell Line	relative viability
NCI-H2342	0.449
SK-MES-1	0.846
H3255	0.56
COR-L23	0.323
COR-L 105	0.701
IA-LM	0.797
LOU-NH91	0.892
ChaGo-K-1	0.431
NCI-H2170	0.609
A549	0.366
SW 900	0.884
NCI-H1648	0.886
NCI-H2009	0.685
NCI-H661	0.733
SK-LU-1	0.488
NCI-H1299	1.01
CAL-12T	0.692
NCI-H2228	0.616
NCI-H2023	0.508

Same assay, conditions: first compound 0.6325 µM

Cell Line	relative viability
NCI-H522	0.677
NCI-H727	0.695
NCI-H1650	0.735
EBC-1	0.76
NCI-H1703	0.27
NCI-H1993	1.05
SW 1573	0.405
NCI-H838	0.71
LCLC-103H	0.725
NCI-H520	0.298
NCI-H2126	0.904
